Assay results as given in US10463709B2, “Short synthetic peptide for treating diseases and/or conditions related to angiogenesis” (MacKay Memorial Hospital, priority 2015, dated 2019).
Square brackets hold non-standard residues; d marks the D form. Ends that are not written are not given here.

Assays:
HUVECs [1] = assay: Endothelial cell capillary-like tube formation assay; format: cell-based; settings: VEGF (10 ng/mL) + 25 μM peptide; vs untreated HUVECs
Method: To examine the effect of the present synthetic peptide on in vitro angiogenesis, growth factor-reduced matrigel was pipetted into pre-chilled 24-well plates (150 μl matrigel per well) and polymerized for 45 min at 37° C. […] In this experiment, images were captured using a Cannon camera on Zeiss inverted microscope with magnification ×40 and tube length was quantified using Image analysis software (Image-Pro Plus). The control peptide as used in the present invention has the sequence of DLYRVR (SEQ ID NO: 10).

[2] = test system: STZ-induced diabetic mice; assay: Vascular abnormalities in the retina of diabetic mice; format: in vivo; settings: for Fluorescence Intensity (Fold): leaked FITC-BSA in entire retina, vs vehicle
Method: Diabetic mice were generated by a single intraperitoneal injection of streptozotocin (STZ) (150 mg/kg body weight). STZ was freshly prepared in 0.1 M citrate buffer (pH 4.5). After injection, mice were supplied with 10% sucrose overnight to prevent sudden hypoglycemic shock. After 1 week, mice with non-fasting blood glucose levels >500 mg/dl were defined as diabetic and used for the experiments. DMSO Vehicle or the present synthetic peptide (10 mg/kg; n≥3 per peptide) were administered by intraperitoneal injections twice a day. After treatment for 24 h, mice were intraperitoneal injected with 100 mg/kg of BSA-FITC for further 30 min.
To determine vascular lesions (hemorrhaging areas) in retina, the animals were euthanized by CO2 inhalation, and the eyes were enucleated and fixed by 2% paraformaldehyde for 2 hr and flat-mounted onto glass slides to obtain optical sections by an epifluorescence microscopy. Vascular lesions in the retina was scored in all four retinal quadrants of flat mounts by using a 20× objective. Six microscopic fields were sampled in each quadrant in both the central and peripheral retina, and data were presented as the average number of lesions/retina.
Vascular FITC-BSA leakage was determined by a fluorescence spectrofluorometer based on standard curves of FITC-BSA at excitation and emission wavelengths of 488 and 535 nm, respectively, and then normalized to a non-injected control retina. For this analysis, retinas were dissected from treated and untreated diabetic mice after BSA-FITC injections, and each was solubilized in 300 μL ice-cold PBS.
Diabetic retinopathy is characterized by blood-retinal barrier (BRB) breakdown and neurotoxicity. To evaluate the possible beneficial effect of the present synthetic peptides on diabetic retinopathy, STZ-induced diabetic mice were intraperitoneally injected with 7-mer peptide, DMSO vehicle or the control peptide (SEQ ID NO: 22). The retinal vascular abnormality was then monitored by detecting the extravasation of BSA-fluorescein. Results are depicted in FIG. 11.

B16-F10 melanoma cells = assay: Experimental pulmonary metastasis in mice; format: in vivo, C57BL/6 mice; settings: for effect on number of colonies on the surface of the lung / in vivo metastasis / No. lung colonies: 10 mg/Kg intraperitoneal every 2 days; for No. lung colonies: day 8, n = 5; for Inhibition (%): lung colonies vs vehicle, 10 mg/Kg
Method: 2×10^5 B16-F10 cells were suspended in 100 μl PBS and checked for viability using trypan blue staining (>95%). The B16-F10 cells were then injected into the tail vein of the 6-week-old female C57BL/6 mice; while vehicle (DMSO), the present synthetic peptide or the control peptide (10 mg/kg) were administered by intraperitoneal injections every 2 days after the B16-F10 cell injection. Five mice were used for each group. On day 8 after inoculation of cells, the lungs were removed, and the number of visible colonies on the surface of the lungs were counted using a dissecting microscope.
Metastasis is the foremost cause of death from cancer. In this example, to investigate the efficacy of the present synthetic peptide on the metastasis of cancer cells, B16-F10 cells were injected into the tail vein of a mouse, the animal was then treated with the present synthetic peptide (7-mer or 7-mer DD, 10 mg/Kg) by intraperitoneal injections every 2 days. Upon completion of the experiment, the lungs were then removed and the tumor colonies visible to the eyes were then counted. Results are depicted in FIG. 10.

RPMI8226 cells = assay: MTT assay, VEGF-induced proliferation of RPMI8226 cells; format: cell-based; settings: for effect on VEGF-induced proliferation of RPMI8226 cells: VEGF 50 ng/ml, 25 μM peptide, 24 hrs, MTT; for biological activity of the analogue relative to the 7-mer (summary statement of the description): summary of Example 1 findings
Method: The multiple myeloma line RPMI8226 was cultivated in complex medium (RPMI1640) supplemented with 10% (vol/vol) heat-inactivated fetal calf serum (Invitrogen), 50 μg/mL penicillin, 50 μg/mL streptomycin, and 2 mM L-glutamine at 37° C. in a 5% CO2 atmosphere. RPMI8226 cells were cultured in serum-free RPMI1640 medium for 24 hrs, and then cells were seeded in 48-well culture plates (3×10^5 cells/well) and continued to culture in 0.5 ml fresh serum-free RPMI1640 medium containing 25 μM peptide for another 24 hrs. The cell viability was determined by the MTT assay. Briefly, 50 μL of MTT stock solution (50 μL) (5 mg MTT dissolved in 1 ml of sterile PBS) was added to each culture well. In addition, 50 μL of the MTT stock solution was added in 500 μL of medium as the negative control. The culture plate was incubated at 37° C. for 4 hours. Aliquots (450 μl) from each sample were taken to a new well of 48-well culture plate, adding 100 μL DMSO, mixing thoroughly using the pipette and reacted at 37° C. for 20 min and read absorbance at 570 nm. These synthesized peptides were then subject to MTT assay, in which vascular endothelial growth factor (VEGF) was used as a stimulant to induce cell proliferation. Results are depicted in FIGS. 1 to 4.

HUVECs [3] = assay: VEGF-induced HUVEC proliferation assay; format: cell-based; settings: VEGF (10 ng/mL) + 25 μM peptide; vs untreated HUVECs
Method: HUVECs (1×10^5 cells per well of 6-well plate) were grown in Medium 200 with Low Serum Growth Supplement (LSGS Kit, supplement contains 1.9% FBS, 3 ng/ml bFGF, 10 μg/ml heparin, 1 μg/ml hydrocortisone, and 10 ng/ml EGF). Culture plates were coated with 2% gelatin. Cells (passages 4-8) were cultured at 37° C. in a humidified atmosphere of 5% CO2. […]
HUVECs (1×10^5 cells per well of 6-well plate) in Medium 200 supplemented with LSGS Kit were allowed to grow onto 6-well plates coated with 2% gelatin for 24 hours at 37° C. in 5% CO2. The culture medium was then replaced with serum free Medium 200 overnight. […] Then, cells were harvested by trypsin-EDTA and counted using a hemocytometer.

rat aortic ring = assay: Rat aortic ring assay (ex vivo microvessel sprouting); set-up: species or system Sprague Dawley rats; settings: beta-FGF induced; peptide 50 μM
Method: Thoracic aortas were removed from euthanized 10-week-old male Sprague Dawley rats, and gently stripped off periaortic fibroadipose tissue. Aortas were sectioned to about 2-mm length rings, which were embedded in Matrigel. To induce angiogenesis, human recombinant bFGF (50 ng/ml) or bFGF plus the peptide (50 μM) was added in Matrigel. Gel (200 μl) containing an aortic ring was polymerized in 12-well plates (37° C. for 30 min) and then incubated with 1 ml of Medium 200 supplemented with 100 units/ml penicillin, and […] streptomycin and 2% FBS at 37 ° C. The cultures were propagated at 37 ° C. in a humidified incubator for up to 7 days. Sprouts were recorded using an inverted microscope platform (Leica DM16000B) with bright-field optics. Each ring was scored by three independent observers on a scale 0-4 depending on the degree of sprouting vessel being observed (0=no sprouting, 4=profuse sprouting). The experiment was repeated in triplicates.

| Substance | Tube length (Fold) (HUVECs [1]) | extravasation of FITC-BSA [2] | Fluorescence Intensity (Fold) [2] | effect on number of colonies on the surface of the lung / in vivo metastasis (B16-F10 melanoma cells) | No. lung colonies (B16-F10 melanoma cells) | Inhibition (%) (B16-F10 melanoma cells) | dose dependence of inhibitory action on VEGF-induced cell proliferation (RPMI8226 cells; 1 to 25 μM, RPMI8226 cells) | Cell number (Fold) (HUVECs [3]) | level of sprouting microvessels around the aortic ring (rat aortic ring) | effect on VEGF-induced proliferation of RPMI8226 cells (RPMI8226 cells) | biological activity of the analogue relative to the 7-mer (summary statement of the description) (RPMI8226 cells) |
| --- | --- | --- | --- | --- | --- | --- | --- | --- | --- | --- | --- |
| H-DLYR[dV]RS-OH [7-mer DV] | 1.24 ± 0.18 Fold | may significantly prevent | 0.31 ± 0.072 Fold | may suppress in vivo metastasis | 51 ± 17.0 | 77.4% | dose dependent manner | 0.99 ± 0.078 Fold | inhibited |  |  |
| NH2-Asn-Val-Tyr-Arg-Val-Arg-Ser-COOH (NVYRVRS; not fully specified (N-terminus, C-terminus); printed as NH2-Asn-Val-Tyr-Arg-Val-Arg-Ser-COOH) [7-mer NV] | 1.41 ± 0.32 Fold | may significantly prevent | 0.35 ± 0.11 Fold | may suppress in vivo metastasis | 55 ± 16.5 | 75.8% |  | 1.01 ± 0.086 Fold | inhibited | could sustain 7-mer bioactivity, only partly |  |
| NH2-Asp-Ile-Tyr-Arg-Val-Pro-Ser-COOH (DIYRVPS; not fully specified (N-terminus, C-terminus); printed as NH2-Asp-Ile-Tyr-Arg-Val-Pro-Ser-COOH) [7-mer IP] | 1.66 ± 0.20 Fold | may significantly prevent | 0.38 ± 0.12 Fold | may suppress in vivo metastasis | 63 ± 9.4 | 72.0% |  | 1.05 ± 0.067 Fold | inhibited | could sustain 7-mer bioactivity, only partly |  |
| NH2-Asp-Leu-Trp-Arg-Ile-Arg-Ser-COOH (DLWRIRS; not fully specified (N-terminus, C-terminus); printed as NH2-Asp-Leu-Trp-Arg-Ile-Arg-Ser-COOH) [7-mer WI] | 1.23 ± 0.22 Fold | may significantly prevent | 0.31 ± 0.085 Fold | may suppress in vivo metastasis | 74 ± 24.3 | 67.3% |  | 0.91 ± 0.078 Fold | inhibited | could sustain 7-mer bioactivity, only partly |  |
| NH2-Asp-Leu-Tyr-Arg-Gln-Lys-Ser-COOH (DLYRQKS; not fully specified (N-terminus, C-terminus); printed as NH2-Asp-Leu-Tyr-Arg-Gln-Lys-Ser-COOH) [7-mer QK] | 1.46 ± 0.31 Fold | may significantly prevent | 0.31 ± 0.081 Fold | may suppress in vivo metastasis | 82 ± 16.3 | 63.5% |  | 1.09 ± 0.067 Fold | inhibited | could sustain 7-mer bioactivity, only partly |  |
| NH2-Asp-Leu-Tyr-Arg-Leu-Arg-Ser-COOH (DLYRLRS; not fully specified (N-terminus, C-terminus); printed as NH2-Asp-Leu-Tyr-Arg-Leu-Arg-Ser-COOH) [7-mer (V→L)] | 1.41 ± 0.37 Fold | may significantly prevent | 0.33 ± 0.079 Fold | may suppress in vivo metastasis | 75 ± 30.4 | 66.8% |  | 1.02 ± 0.049 Fold | inhibited | could sustain 7-mer bioactivity, only partly | relatively the same bioactivity |
| NH2-Asp-Leu-Tyr-Arg-Met-Lys-Ser-COOH (DLYRMKS; not fully specified (N-terminus, C-terminus); printed as NH2-Asp-Leu-Tyr-Arg-Met-Lys-Ser-COOH) [7-mer MK] | 1.18 ± 0.31 Fold | may significantly prevent | 0.37 ± 0.095 Fold | may suppress in vivo metastasis | 79 ± 26.4 | 65.0% |  | 1.04 ± 0.062 Fold | inhibited | could sustain 7-mer bioactivity, only partly |  |
| NH2-Asp-Leu-Tyr-Arg-Val-Arg-(D-Ser)-COOH (H-DLYRVR[dS]-OH) [7-mer DS] | 3.45 ± 0.26 Fold |  | 0.96 ± 0.12 Fold |  | 245 ± 30.4 | −9.0% |  | 1.59 ± 0.084 Fold | unaffected |  | lose its biological activity |
